In patent US10201558B2, “Compositions of selenoorganic compounds and methods of use thereof” (Alltech, Inc., priority 2014, dated 2019):
“Also recorded” adds a separate entry of the source.

Key:
[1] = tested on: Insulin Degrading Enzyme (IDE); assay: Western blot of insulin degrading enzyme in APP/PS1 mouse brains; type: in vivo; conditions: APP/PS1 mice, Compound C diet vs control diet
Description: Male APPΔNLh/ΔNLh×PS1P246 L/246 L knock-in model mice of Alzheimer's disease (abbreviated APP/PS1) were genotyped using standard primers for human APP (Amyloid Precursor Protein) and human PS1 (PSEN1). These APP/PS1 mice starting at the age of 6 months, were fed either a control diet containing normal levels of selenium (0.3 ppm from plant and inorganic selenium salt sources) or an experimental diet containing Compound C (the control diet to which was added 1 ppm Se from Compound C) for 6 months. […]
Frozen hemispheres of control- and Compound C-treated APP/PS1 mice were weighed and homogenized in PBS buffer, and then subsequently extracted with RIPA buffer (Sigma) containing complete proteinase and phosphatase inhibitors (Fisher Scientific). Protein levels in the samples were determined by micro-BCA protein analysis according to the manufacturer's protocol. […] Positive signals on the membrane blots were detected using Amersham's enhanced chemiluminescence Western Blotting Prime Detection reagents (GE healthcare Lifescience, Pittsburgh, Pa.). Images of these luminescence signals on the membrane blots were captured using the LI-COR Odyssey Fc Image system (Lincoln, Nebr.). Protein band densities in Western blots were determined using NIH Image J software, and then normalized by Actb levels in each samples to obtain the protein levels.

[2] = tested on: gene transcripts in the brains of APP/PS1 mice; assay: Microarray analysis of RNA expression in the brains of APP/PS1 mice; type: in vivo, mouse
[3] = APP/PS1 mouse brain, Compound C diet vs control diet

C[Se]C[C@H]1O[C@@H](n2cnc3c(N)ncnc32)C(O)C1O (stereo in doubt) [Compound C, 5′-deoxy-5′-methylselenoadenosine]
IDE protein levels in the brains [1]: increased; also recorded: elevated
number of genes with regulated expression in the brains ([2]; APP/PS1 mice, fold change of more than 1.2): 2217 genes
Fold Change, Akap5 [2, 3]: 1.589 fold
Fold Change, Apbb1 [2, 3]: −1.293 fold
Fold Change, App [2, 3]: −1.22 fold
Fold Change, Bcl2 [2, 3]: 1.246 fold
Fold Change, Camk2a [2, 3]: −1.67 fold
Fold Change, Cnr1 [2, 3]: −1.492 fold
Fold Change, Ddx5 [2, 3]: 1.26 fold
Fold Change, Dlx5 [2, 3]: 2.09 fold
Fold Change, Drd1 [2, 3]: 4.22 fold
Fold Change, Foxp2 [2, 3]: 2.52 fold
Fold Change, Gabra1 [2, 3]: −1.407 fold
Fold Change, Gabra2 [2, 3]: 1.275 fold
Fold Change, Gabrg1 [2, 3]: 1.375 fold
Fold Change, Gad2 [2, 3]: 1.69 fold
Fold Change, Gpr6 [2, 3]: 9.07 fold
Fold Change, Gpr88 [2, 3]: 6.47 fold
Fold Change, Grm4 [2, 3]: 1.418 fold
Fold Change, Htr2c [2, 3]: 1.797 fold
Fold Change, Isl1 [2, 3]: 11.32 fold
Fold Change, Mapk8 [2, 3]: −1.289 fold
Fold Change, Mapt [2, 3]: −1.21 fold
Fold Change, Meis2 [2, 3]: 2.04 fold
Fold Change, Nrxn1 [2, 3]: −1.444 fold
Fold Change, Pak1 [2, 3]: −1.201 fold
Fold Change, Pde10a [2, 3]: 2.91 fold
Fold Change, Penk [2, 3]: 4.068 fold
Fold Change, Prdx1 [2, 3]: 1.272 fold
Fold Change, Prkacb [2, 3]: −1.396 fold
Fold Change, Prkar2b [2, 3]: 1.439 fold
Fold Change, Prkcd [2, 3]: 1.813 fold
Fold Change, Prnp [2, 3]: −1.256 fold
Fold Change, Rarb [2, 3]: 4.03 fold
Fold Change, Rims1 [2, 3]: −1.459 fold
Fold Change, Scarb1 [2, 3]: 1.56 fold
Fold Change, Scp2 [2, 3]: 1.204 fold
Fold Change, Sez6 [2, 3]: 1.33 fold
Fold Change, Sod1 [2, 3]: 1.274 fold
Fold Change, Sorl1 [2, 3]: −1.41 fold
Fold Change, Sox2 [2, 3]: 1.274 fold
Fold Change, Tac1 [2, 3]: 3.36 fold
Fold Change, ZIC1 [2, 3]: 3.25 fold
Fold Change, Zic3 [2, 3]: 2.28 fold
Fold Change, Zic4 [2, 3]: 1.75 fold
Fold Change, Zic5 [2, 3]: 1.53 fold
Foxo 1, 3 and 4 mRNA levels [2, 3]: no significant change
